Data: patent publication US11198678B1, “Plakortinic acids A and B: cytotoxic cycloperoxides with a unique bicyclo[4.2.0]octene unit from sponges of the genera Plakortis and Xestospongia” (University of Puerto Rico, priority 2016, dated 2021)

What was measured:
A2058 melanoma cells = test: MTS cell viability (cytotoxicity) assay, A2058 melanoma cells; type: cell-based, human; conditions: 48 h treatment
Procedure: (§1) DU-145 human prostate cancer and A2058 melanoma cell lines were obtained from ATCC. These cells were cultured in RPMI-1640 or DMEM medium containing 10% fetal bovine serum (FBS), 100 units/mL penicillin, and 100 μg/mL streptomycin. All cells were maintained in a 5% CO2 atmosphere at 37° C. To determine the viability of the cells, Promega CellTiter 96 aqueous nonradioactive cell proliferation assays (MTS) were performed as described by the supplier (Promega; Madison, Wis.). Briefly, cells (5000/well) were seeded in 96-well plates and incubated overnight at 37° C. in 5% CO2. Cells were treated for 48 h with each compound. The concentration used was 10 μM. Dimethyl sulfoxide (DMSO) was used as the vehicle control. IC50 values of compounds were determined in a dose-dependent manner (0.1, 0.5, 1, 5, 10, 20, and 50 μM). Cell viability was determined by tetrazolium conversion to its formazan dye, and absorbance of formazan was measured at 490 nm using an automated ELISA plate reader. The production of formazan dye was directly proportional to the number of living cells. Each experiment was done in quadruplicate in the absence of a positive control.

[1] = tested on: DU-145 human prostate cancer cells; test: MTS cell viability (cytotoxicity) assay, DU-145 prostate cancer cells; type: cell-based; conditions: 48 h treatment
Procedure: as §1

Substance plakortinic acid A [compound 2] has an IC50 (A2058 melanoma cells) of 300 nM and an IC50 [1] of 500 nM.

With “plakortinic acid B methyl ester [compound 4]” the IC50 (A2058 melanoma cells) was 4700 nM and the IC50 [1] was 5900 nM.
